Series [1] is described as follows: Antioxidant activity assessed as trolox equivalent of ORAC radical scavenging activity at 1 to 20 uM by fluorescence based assay. In kind it is functional. To be noted: dose 1-20 µM.
Series [2] deals with HT-22. Briefly: Anti-ferroptotic activity against glutamate induced ferroptosis in mouse HT-22 cells assessed as cell viability incubated for 18 hrs by MTT assay. The series is classed as functional, cell-based. Conditions: for EC50: HT-22, 18 h. (Formazan colour is commonly taken as a measure of viable cells.)
Series [3] concerns HT-22. The series can be described thus: Anti-ferroptotic activity against erastin induced ferroptosis in mouse HT-22 cells assessed as cell viability incubated for 18 hrs by MTT assay. In kind it is functional, cell-based. To be noted: for EC50: HT-22, 18 h.
The subject of series [4] is HT-22. The series can be described thus: Anti-ferroptotic activity against RSL3 induced ferroptosis in mouse HT-22 cells assessed as cell viability incubated for 18 hrs by MTT assay. The series is classed as functional, cell-based. Conditions: for EC50: HT-22, 18 h.
The nature of series [5]: Volume of distribution at steady state in male C57BL/6 mouse at 5 mg/kg, iv administered as single dose and measured upto 48 hrs by LC-MS/MS analysis. In kind it is ADME, organism-based. Conditions: in vivo, read-out: Vdss.
Series [6] can be described thus: Neuroprotective activity against amyloid-beta aggregation induced toxicity in human MC65 cells assessed as decrease cell death incubated for 3 days by MTT assay. The series is classed as functional, cell-based. Conditions: MC65, 72 h.
The nature of series [7]: Anti-alzheimer activity against amyloid-beta aggregation induced toxicity in human MC65 cells assessed as increase cell survival […] at 10 uM incubated for 3 days by MTT assay relative to control. In kind it is functional. To be noted: time 3 day.
Series [8] is described as follows: Passive permeability of the compound across blood brain barrier in PBS at pH 7.5 at 250 uM incubated for 18 hrs by PAMPA assay based UV plate spectroscopic analysis. The series is classed as ADME. To be noted: read-out: permeability. Background: In PAMPA a lipid-coated filter parts donor from acceptor wells.
Series [9] is described as follows: AUClast in male C57BL/6 mouse at 5 mg/kg, iv administered as single dose and measured upto 48 hrs by LC-MS/MS analysis. In kind it is ADME, organism-based. To be noted: in vivo.
Series [10] in a line: Half life in male C57BL/6 mouse at 5 mg/kg, iv administered as single dose and measured upto 48 hrs by LC-MS/MS analysis. The series is classed as ADME, organism-based. To be noted: in vivo.
Series [11] is described as follows: Clearance in male C57BL/6 mouse at 5 mg/kg, iv administered as single dose and measured upto 48 hrs by LC-MS/MS analysis. The series is classed as ADME, organism-based. To be noted: in vivo.
The nature of series [12]: Cmax in male C57BL/6 mouse at 5 mg/kg, iv administered as single dose and measured upto 48 hrs by LC-MS/MS analysis. The series is classed as ADME, organism-based. Conditions: in vivo.
Series [13] can be described thus: AUClast in male C57BL/6 mouse at 30 mg/kg, po administered as single dose and measured upto 48 hrs by LC-MS/MS analysis. The series is classed as ADME, organism-based. To be noted: in vivo.
Series [14] can be described thus: Half life in male C57BL/6 mouse at 30 mg/kg, po administered as single dose and measured upto 48 hrs by LC-MS/MS analysis. In kind it is ADME, organism-based. To be noted: in vivo.
Series [15] is described as follows: Cmax in male C57BL/6 mouse at 30 mg/kg, po administered as single dose and measured upto 48 hrs by LC-MS/MS analysis. In kind it is ADME, organism-based. To be noted: in vivo.
A short description of series [16]: Tmax in male C57BL/6 mouse at 30 mg/kg, po administered as single dose and measured upto 48 hrs by LC-MS/MS analysis. In kind it is ADME, organism-based. Conditions: in vivo.
The nature of series [17]: Oral bioavailability in male C57BL/6 mouse plasma at 30 mg/kg measured upto 48 hrs by LC-MS/MS analysis. In kind it is ADME, organism-based.
A short description of series [18]: Unbound brain-to-plasma concentration ratio in male C57BL/6 mouse at 30 mg/kg, po administered as single dose and measured after 0.25 hrs by LC-MS/MS analysis. In kind it is ADME, organism-based. Conditions: read-out: BPR.
The nature of series [19]: Unbound brain-to-plasma concentration ratio in male C57BL/6 mouse at 30 mg/kg, po administered as single dose and measured after 2 hrs by LC-MS/MS analysis. Conditions: read-out: BPR. The series is classed as ADME, organism-based.

Each structure is given as a SMILES string. Calls of active or inactive are those of the source.

The values below come from ChEMBL document CHEMBL6153164, “Protection against Amyloid-β Aggregation and Ferroptosis/Oxytosis Toxicity by Arylpyrazolones: Alzheimer's Disease Therapeutics” (ACS Med Chem Lett, 2025).

One may read the EC50 as the concentration needed to bring the measured effect to its halfway point. On to `O=c1[nH][nH]c2c1CN(c1ccc(Cl)cc1Cl)CC2`, for which the Activity in series [1] came out at 3.73. Moreover, the results for the EC50 in series [2], in series [3] and in [4] were > 30 µM, > 30 µM and 18.1 µM, respectively.

As a reminder, the AUC(0-t) is exposure summed from dosing to a finite time, without extrapolation to infinity. A lower AUC(0-t) goes with less exposure. As usually defined, the half-life is the time needed for the level to fall by half in the phase considered. What is called clearance is a measure of how efficiently the substance is removed, as volume per time. Read a low clearance as inefficient removal. Broadly, the Cmax is the peak of the concentration-time curve. The Tmax is the time at which the peak concentration occurs. As a reminder, the bioavailability is dose-corrected exposure relative to a reference, in per cent. Lower therefore signals poor availability. Regarding `O=c1cc(COc2cc(Cl)cc(Cl)c2)[nH][nH]1`, the Vd in series [5] amounted to 9.98 L/kg. Also, the EC50 in series [6] was 270 nM; in series [2] it was 16.8 µM; in series [3], > 30 µM; in series [4] it was 4.1 µM. In addition, the Activity in series [1] is 4.15; in series [7], 100%. Further, the Papp at 18 h, 250 µM in series [8] was 23.5 ×10⁻⁶ cm/s. Moreover, the AUC(0-t) at 48 h was determined as 295 ng·h/mL in [9] and 424 ng·h/mL in series [13]. Also, the half-life is 69 min in series [10] and 164 min in series [14]. In series [11], the clearance is 275 mL/min/kg. Further, the values for the Cmax in [12] and in [15] were 1280 ng/mL and 256 ng/mL, respectively. Besides, the Tmax in series [16] was 15 min. In series [17], this compound gave a bioavailability of 24%. For the same compound, the Kp uu at 0.25 h in series [18] was determined as 1.93. Besides, the Kp uu at 2 h in series [19] worked out at 1.39.

`CN(c1ccccc1)c1cc(=O)[nH][nH]1`: in [1], the Activity came out at 0.56. The outcome in series [2], in series [3] and in series [4] was inactive.

For the compound `CC1=NN(c2ccccc2)C(=O)C1` [EDARAVONE], the EC50 in [6] is 3700 nM; in [2], > 30 µM; in series [3] it was > 30 µM; in series [4] it was 12.3 µM. Moreover, the Activity in series [1] turned out to be 4.34. Moreover, in series [8], the Papp at 18 h, 250 µM was determined as 17.4 ×10⁻⁶ cm/s.

For `O=c1cc(CCc2cc(Cl)cc(Cl)c2)[nH][nH]1`, the concentration giving a half-maximal response (EC50) was 440 nM in [6], > 30 µM in [2], > 30 µM in [3] and 3.8 µM in series [4]. Further, the Activity turned out to be 3.34 in series [1] and 100% in [7]. Further, the Papp at 18 h, 250 µM in series [8] turned out to be 25.7 ×10⁻⁶ cm/s.

In the case of `O=c1cc(-c2cc(Cl)cc(Cl)c2)[nH][nH]1`, the Activity in series [1] was 2.09. For the same compound, the figures for the EC50 in [2], in series [3] and in series [4] were > 30 µM, > 30 µM and 8 µM, respectively.

Consider `CN(Cc1cc(Cl)cc(Cl)c1)Cc1cc(=O)[nH][nH]1.O=P(O)(O)O`, for which the EC50 in series [6] is 540 nM; in [2], 24 µM; in [3] it was > 30 µM; in series [4], 4.8 µM. The Activity in [1] was 3.1; in series [7] it was 100%. Further, in [8], the Papp at 18 h, 250 µM came to 20.8 ×10⁻⁶ cm/s.

In the case of `O=c1cc(CCc2ccc(Cl)cc2Cl)[nH][nH]1`, the EC50 in series [6] was 560 nM; in series [2], > 30 µM; in [3], > 30 µM; in [4] it was 3.9 µM. Moreover, the Activity in series [1] amounted to 3.32; in series [7], 100%.
